Laboratory results taken from patent publication US12622948B2 (SUN PHARMACEUTICAL INDUSTRIES LIMITED, priority 2020, dated 2026).
Marks after values point to notes of the source that are not given here.

Legend:
[1] = test system: type 2 diabetic mouse (db/db) model; assay: Efficacy study in db/db mice at 10 nM/kg dose (blood glucose, body weight, food intake); format: in vivo
Method: The effect of compounds of present invention on blood glucose, food intake and body weight was studied in mice. This study was performed in a type 2 diabetic mouse (db/db) model. […] Baseline blood glucose was measured from all the animals. […] All the animals were administered with test items subcutaneously. […] Delta blood glucose (mM) was calculated.

[2] = test system: type 2 diabetic mouse (db/db) model; assay: Efficacy study in db/db mice at 3 and 20 nM/kg dose (blood glucose, body weight, food intake); format: in vivo
Method: The effect of compounds of present invention on blood glucose, food intake and body weight was studied on mice. This study was performed in type 2 diabetic mouse (db/db) model. […] Baseline blood glucose was measured from all the animals. All animals were administered with test items subcutaneously. […] Delta blood glucose (mM) was calculated. Body weight changes and cumulative food consumption was measured at 72 hr post treatment.

[3] = Study 1, db/db mice, 10 nM/kg s.c.
[4] = Study 1, db/db mice, 10 nM/kg s.c., 48 hr
[5] = Study 1, db/db mice, 10 nM/kg s.c., 96 hr
[6] = Study 2, db/db mice, 10 nM/kg s.c. single dose
[7] = Study 2, db/db mice, 10 nM/kg s.c. single dose, 48 hr
[8] = Study 2, db/db mice, 10 nM/kg s.c. single dose, 96 hr
[9] = db/db mice, 10 nM/kg s.c., vs diabetic control

Compound: CCC[C@H](NC(=O)[C@@H](NC(=O)[C@H](CO)NC(=O)[C@H](Cc1ccc(O)cc1)NC(=O)[C@H](CC(=O)O)NC(=O)[C@H](CO)NC(=O)[C@@H](NC(=O)[C@H](Cc1ccccc1)NC(=O)[C@@H](NC(=O)CNC(=O)[C@H](CCC(=O)O)NC(=O)C(C)(C)NC(=O)[C@@H](N)Cc1ccc(O)cc1)[C@@H](C)O)[C@@H](C)O)[C@@H](C)CC)C(=O)N[C@@H](CC(C)C)C(=O)N[C@@H](CC(=O)O)C(=O)N[C@@H](CCCCN)C(=O)N[C@H](C(=O)N[C@@H](C)C(=O)N[C@@H](CCC(N)=O)C(=O)N[C@@H](CCCCNC(=O)COCCOCCNC(=O)C(C)(C)NC(=O)CC[C@H](NC(=O)CCCCCCCCCCCCCCCCCCC(=O)O)C(=O)O)C(=O)N[C@@H](C)C(=O)N[C@@H](Cc1ccccc1)C(=O)N[C@H](C(=O)N[C@@H](CCC(N)=O)C(=O)N[C@@H](Cc1c[nH]c2ccccc12)C(=O)N[C@@H](CC(C)C)C(=O)N[C@H](C(=O)N[C@@H](C)C(=O)NCC(=O)NCC(=O)N1CCC[C@H]1C(=O)N[C@@H](CO)C(=O)N[C@@H](CO)C(=O)NCC(=O)N[C@@H](C)C(=O)N1CCC[C@H]1C(=O)N1CCC[C@H]1C(=O)N1CCC[C@H]1C(=O)N[C@@H](CO)C(N)=O)[C@@H](C)CC)C(C)C)[C@@H](C)CC [Compound 1]
- Cumulative food Intake (g) 0-48 hr. vs. Baseline, Mean [1, 3]: 7.5*** g
- Cumulative food Intake (g) 0-96 hr. vs. Baseline, Mean [1, 3]: 13.9*** g
- Delta Blood Glucose (mM) Mean ([1]; Study 1, db/db mice, 10 nM/kg s.c., 0 hr (baseline)): 0 mM
- Delta Blood Glucose (mM) Mean ([1]; Study 1, db/db mice, 10 nM/kg s.c., 4 hr): −12.7*** mM
- Delta Blood Glucose (mM) Mean ([1]; Study 1, db/db mice, 10 nM/kg s.c., 8 hr): −12.0*** mM
- Delta Blood Glucose (mM) Mean ([1]; Study 1, db/db mice, 10 nM/kg s.c., 12 hr): −10.5*** mM
- Delta Blood Glucose (mM) Mean ([1]; Study 1, db/db mice, 10 nM/kg s.c., 24 hr): −15.5*** mM
- Body Wt. Change (%) 48 hr. vs. Baseline, Mean [1, 4]: −5.1*** %
- Delta Blood Glucose (mM) Mean [1, 4]: −6.7*** mM
- Delta Blood Glucose (mM) Mean ([1]; Study 1, db/db mice, 10 nM/kg s.c., 72 hr): −4.3*** mM
- Body Wt. Change (%) 96 hr. vs. Baseline, Mean [1, 5]: −4.2*** %
- Delta Blood Glucose (mM) Mean [1, 5]: −2.2*** mM
- Cumulative food Intake (g) 0-48 hr. vs. Baseline, Mean [1, 6]: 3.8*** g
- Cumulative food Intake (g) 0-96 hr. vs. Baseline, Mean [1, 6]: 12.5*** g
- Delta Blood Glucose (mM) Mean ([1]; Study 2, db/db mice, 10 nM/kg s.c. single dose, 0 hr (baseline)): 0 mM
- Delta Blood Glucose (mM) Mean ([1]; Study 2, db/db mice, 10 nM/kg s.c. single dose, 4 hr): −10.0*** mM
- Delta Blood Glucose (mM) Mean ([1]; Study 2, db/db mice, 10 nM/kg s.c. single dose, 8 hr): −13.5*** mM
- Delta Blood Glucose (mM) Mean ([1]; Study 2, db/db mice, 10 nM/kg s.c. single dose, 12 hr): −12.3*** mM
- Delta Blood Glucose (mM) Mean ([1]; Study 2, db/db mice, 10 nM/kg s.c. single dose, 24 hr): −11.5*** mM
- Body Wt. Change (%) 48 hr. vs. Baseline, Mean [1, 7]: −5.1*** %
- Delta Blood Glucose (mM) Mean [1, 7]: −7.9*** mM
- Delta Blood Glucose (mM) Mean ([1]; Study 2, db/db mice, 10 nM/kg s.c. single dose, 72 hr): −4.3** mM
- Body Wt. Change (%) 96 hr. vs. Baseline, Mean [1, 8]: −3.5*** %
- Delta Blood Glucose (mM) Mean [1, 8]: -1.4 mM
- effect on blood glucose reduction compared with tirzepatide ([1]; db/db mice, 10 nM/kg s.c., same concentration as tirzepatide): superior to tirzepatide
- blood glucose reduction [1, 9]: statistically significant blood glucose reduction upto 96 hr post treatment
- body weight reduction [1, 9]: statistically significant body weight reduction which was comparable to tirzepatide
- reduction in food consumption [1, 9]: significant reduction in food consumption which was comparable to tirzepatide
- glucose lowering effect ([2]; 3 nM/kg and 20 nM/kg s.c.): dose dependent improvement in glucose lowering effect upto 72 hours
- glucose lowering effect compared with tirzepatide ([2]; 3 nM/kg and 20 nM/kg s.c.): superior to tirzepatide at similar dosage
- Cumulative Food Intake (g), 0-72 hr, Mean ([2]; 3 nM/kg s.c.): 10.2*** g
- Delta Blood Glucose (mM) Mean ([2]; 3 nM/kg s.c., 0 hr (baseline)): 0.0 mM
- Delta Blood Glucose (mM) Mean ([2]; 3 nM/kg s.c., 4 hr): −8.9*** mM
- Delta Blood Glucose (mM) Mean ([2]; 3 nM/kg s.c., 24 hr): −9.9*** mM
- Delta Blood Glucose (mM) Mean ([2]; 3 nM/kg s.c., 48 hr): −5.8** mM
- Body weight change (%) 72 hr vs. Baseline, Mean ([2]; 3 nM/kg s.c., 72 hr): −4.0*** %
- Delta Blood Glucose (mM) Mean ([2]; 3 nM/kg s.c., 72 hr): -3.2 mM
- Cumulative Food Intake (g), 0-72 hr, Mean ([2]; 20 nM/kg s.c.): 6.3*** g
- Delta Blood Glucose (mM) Mean ([2]; 20 nM/kg s.c., 0 hr (baseline)): 0.0 mM
- Delta Blood Glucose (mM) Mean ([2]; 20 nM/kg s.c., 4 hr): −13.7*** mM
- Delta Blood Glucose (mM) Mean ([2]; 20 nM/kg s.c., 24 hr): −13.6*** mM
- Delta Blood Glucose (mM) Mean ([2]; 20 nM/kg s.c., 48 hr): −14.0*** mM
- Body weight change (%) 72 hr vs. Baseline, Mean ([2]; 20 nM/kg s.c., 72 hr): −6.2*** %
- Delta Blood Glucose (mM) Mean ([2]; 20 nM/kg s.c., 72 hr): −7.9*** mM
- effect on body weight ([2]; 3 and 20 nM/kg): significant, dose dependent and comparable to tirzepatide
- effect on food intake ([2]; 3 and 20 nM/kg): significant, dose dependent and comparable to tirzepatide
